Converted amounts (≈) assume the structure as drawn. Where two headings read alike, the source gives them in different places.
Columns and labels:
[1] = cited from earlier work
topoisomerase □ = target: T1, topoisomerase □ (Homo sapiens, UniProt P11387); conditions: relative to CPT-11; cited from earlier work
T1 sequence (P11387 1-765): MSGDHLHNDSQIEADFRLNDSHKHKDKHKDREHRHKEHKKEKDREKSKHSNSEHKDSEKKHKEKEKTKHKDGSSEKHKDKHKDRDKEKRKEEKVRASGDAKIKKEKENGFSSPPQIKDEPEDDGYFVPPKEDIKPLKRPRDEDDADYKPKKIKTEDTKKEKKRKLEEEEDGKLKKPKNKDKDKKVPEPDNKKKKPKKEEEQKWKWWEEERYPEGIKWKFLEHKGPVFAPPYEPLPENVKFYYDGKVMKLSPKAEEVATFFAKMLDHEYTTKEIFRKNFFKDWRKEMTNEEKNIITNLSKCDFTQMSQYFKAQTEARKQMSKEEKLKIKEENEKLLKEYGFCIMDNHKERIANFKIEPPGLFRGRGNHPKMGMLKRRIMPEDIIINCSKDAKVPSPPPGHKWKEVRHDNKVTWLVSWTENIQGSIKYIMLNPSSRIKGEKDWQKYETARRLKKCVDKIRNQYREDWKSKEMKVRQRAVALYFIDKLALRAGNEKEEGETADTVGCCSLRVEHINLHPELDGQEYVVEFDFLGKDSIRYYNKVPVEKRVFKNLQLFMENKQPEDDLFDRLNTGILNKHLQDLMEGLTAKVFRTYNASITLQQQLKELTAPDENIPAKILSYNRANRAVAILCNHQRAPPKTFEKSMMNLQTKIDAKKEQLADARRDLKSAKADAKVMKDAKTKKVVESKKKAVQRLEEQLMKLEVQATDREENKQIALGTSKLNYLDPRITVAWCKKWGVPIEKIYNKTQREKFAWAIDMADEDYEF

[2] = type: physicochemical
physchem = conditions: organic solvent or mixture, thermodynamic from solid
acetylcholine = conditions: compared with CPT-11; cited from earlier work
[3] = Lyophilized SN-38 formulation reconstituted with water for injection, HPLC and pH; type: physicochemical
Procedure: Alternatively, a 10-hydroxycamptothecin compound and an amine compound are solubilized in non-aqueous polar solvent, and polymer surfactant is added thereto to prepare a solution. Next, a caking agent for lyophilization is added thereto to prepare a lyophilized formulation. As a specific example, 250 mg of copolymer (mPEG-PLA) of polyethyleneglycol (molecular weight: 2,000 daltons) and polylactic acid (molecular weight: 1,800 daltons) maybe added to a solution in which SN-38 and tromethamine are solubilized in anhydrous ethanol as above, to prepare a pure solution, and then 4 Ml of aqueous mannitol solution (100 mg/Ml) as a caking agent for lyophilization is added thereto, which is filtered with a filter having a pore size of 200 nm, and lyophilized. This lyophilized formulation is reconstituted with 4 Ml of water for injection, and then analyzed by HPLC to confirm that the concentration of SN-38 was 205 μg/Ml, 92% or more of SN-38 existed in the form of a lactone, and the pH of the aqueous solution was 8.4.
12 mg of tromethamine was dissolved in 1 ml of anhydrous ethanol, and 1 mg of SN-38 was added thereto and heated to 60[…] to prepare a pure solution of orange color. Subsequently, the block copolymer of methoxypolyethyleneglycol and polylactic acid, and 200 mg of mPEG-PLA (mPEG molecular weight: 2,000 daltons, PLA molecular weight: 1,800 daltons) were added thereto to prepare a pure solution. Then, 5 ml of aqueous mannitol solution (50 mg/ml) was added thereto, mixed, filtered with a filter having a pore size of 200 nm, and lyophilized to prepare a lyophilized formulation.
Injectable water of 4 Ml was added to the lyophilized vial to reconstitute the lyophilized formulation.

[4] = SN-38 content, lactone/carboxy anion ratio and pH after dilution of surfactant composition with aqueous solution; type: physicochemical; conditions: tromethamine/ethanol/cremophore EL solution, refrigerator 1 week, diluted with 0.9% saline to 5 Ml
[5] = anhydrous ethanol, 10 equivalents of triethanolamine
[6] = lyophilized with 250 mg mPEG-PLA, tromethamine, mannitol, reconstituted with 4 Ml water for injection

In the case of `CCc1c2c(nc3ccc(O)cc13)-c1cc3c(c(=O)n1C2)COC(=O)C3(O)CC` (stereo not drawn) [SN-38, 7-ethyl-10-hydroxycamptothecin], the “Solubility in water of the active lactone form” value ([1]; active lactone form) is given as “not more than 10 μg/ml”, the “Solubility of SN-38 in water” value [1] is given as “not more than 10 μg/ml” and the “Solubility in water of the carboxy anion form” value ([1]; inactive carboxy anion form) is given as no less than 4000 µg/mL. For the same compound, the “Activity for inhibiting topoisomerase □, higher than that of CPT-11” value (topoisomerase □) was “about 1,000 times”, the “Solubility of SN-38” value (anhydrous ethanol without adding an amine compound) was “a few” and the “Solubility of SN-38” value [5] was “about 1 mg/Ml”. For the same compound, the “SN-38 in the form of a lactone” value ([2]; 1 mg SN-38, 10 mg tromethamine, 1 Ml anhydrous ethanol, 500 mg cremophore EL, diluted with acetonitrile) was 100%, the Lacton content ([2]; SN-38 1 mg in 1 ml anhydrous ethanol, amine compound 10 equivalents) was 100% and the Lacton content ([2]; SN-38 1 mg in 1 ml organic solvent, tromethamine 10 equivalents) was 100%. For the same compound, the “Form of SN-38 by HPLC analysis” value [2, 5] was “no carboxy anion form was observed”, the solubility at 12 h (physchem; Solubility of SN-38 in ethanol, ethanol, no amine) was 8 µg/mL (≈ 20.4 µM) and the solubility at 12 h (physchem; Solubility of SN-38 in ethanol, in the presence of 5 or more equivalents of diethanolamine) was no less than 1000 µg/mL. For the same compound, the solubility at 12 h (physchem; Solubility, SN-38 1 mg in 1 ml anhydrous ethanol, amine compound 10 equivalents, room temperature 12 hours) was no less than 1000 µg/mL, the solubility at 12 h (physchem; Solubility, SN-38 1 mg in 1 ml organic solvent, tromethamine 10 equivalents, room temperature 12 hours) was no less than 1000 µg/mL and the “Effect for inhibiting acetylcholine which causes diarrhea” value (acetylcholine) was “much lower than that of CPT-11”. The “pH of the aqueous solution” value ([3]; Example 8: 12 mg tromethamine, 200 mg mPEG-PLA, mannitol, lyophilized, reconstituted with 4 Ml injectable water) was 8.4, the “Lactone form of SN-38” value ([3]; Example 8 lyophilized formulation reconstituted with 4 Ml injectable water) was 97% and the Drug content ([3]; Example 8 lyophilized formulation reconstituted with 4 Ml injectable water, HPLC) was 242 µg/mL. For the same compound, the “Concentration of SN-38” value [3, 6] was 205 µg/mL, the “SN-38 in the form of a lactone” value [3, 6] was no less than 92% and the “pH of the aqueous solution” value [3, 6] was 8.4. For the same compound, the “Concentration of SN-38” value [4] was 220 µg/mL, the “SN-38 in the form of the lactone” value [4] was no less than 95% and the “pH of the solution diluted with saline” value [4] was 8.7.
